Data taken from PMC5669356, “Continuous degradation of maltose by enzyme entrapment technology using calcium alginate beads as a matrix” (Biochemistry and Biophysics Reports, 2015).

Test system: maltase
Experiment: GOD-PAP glucose release assay, Lineweaver-Burk plot
Format: biochemical, Bacillus licheniformis
Settings: free (soluble) enzyme, partially purified; maltose 2.5-50 mM; pH and temperature of the kinetics not stated

- Km: 1.71 mM ml^−1
Compound: OC[C@H]1O[C@H](O[C@H]2[C@H](O)[C@@H](O)C(O)O[C@@H]2CO)[C@H](O)[C@@H](O)[C@@H]1O (stereo partly shown) [maltose]
